This is an account of results in doi:10.1101/2024.04.22.590490v1 (biorxiv, 2024).

Experiment [1] deals with GSK-3α (Homo sapiens, UniProt P49840). Briefly: ADP-Glo luminescent kinase assay. Type of experiment: biochemical.
The target of experiment [2] is GSK-3β (Homo sapiens, UniProt P49841). Briefly: ADP-Glo luminescent kinase assay. It is filed as biochemical.
Sequence of GSK-3β (P49841 whole entry): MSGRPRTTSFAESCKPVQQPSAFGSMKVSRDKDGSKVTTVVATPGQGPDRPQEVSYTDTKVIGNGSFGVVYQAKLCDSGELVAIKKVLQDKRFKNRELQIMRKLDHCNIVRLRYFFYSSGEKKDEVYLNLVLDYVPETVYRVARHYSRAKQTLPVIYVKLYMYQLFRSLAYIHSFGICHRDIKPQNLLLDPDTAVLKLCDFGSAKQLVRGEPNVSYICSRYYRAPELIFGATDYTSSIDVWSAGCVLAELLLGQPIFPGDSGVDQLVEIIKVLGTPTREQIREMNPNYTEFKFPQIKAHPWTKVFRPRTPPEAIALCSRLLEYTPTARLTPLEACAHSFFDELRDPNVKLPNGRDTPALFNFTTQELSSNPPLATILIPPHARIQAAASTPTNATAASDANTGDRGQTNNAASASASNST

Sequence of GSK-3α (P49840 2-483): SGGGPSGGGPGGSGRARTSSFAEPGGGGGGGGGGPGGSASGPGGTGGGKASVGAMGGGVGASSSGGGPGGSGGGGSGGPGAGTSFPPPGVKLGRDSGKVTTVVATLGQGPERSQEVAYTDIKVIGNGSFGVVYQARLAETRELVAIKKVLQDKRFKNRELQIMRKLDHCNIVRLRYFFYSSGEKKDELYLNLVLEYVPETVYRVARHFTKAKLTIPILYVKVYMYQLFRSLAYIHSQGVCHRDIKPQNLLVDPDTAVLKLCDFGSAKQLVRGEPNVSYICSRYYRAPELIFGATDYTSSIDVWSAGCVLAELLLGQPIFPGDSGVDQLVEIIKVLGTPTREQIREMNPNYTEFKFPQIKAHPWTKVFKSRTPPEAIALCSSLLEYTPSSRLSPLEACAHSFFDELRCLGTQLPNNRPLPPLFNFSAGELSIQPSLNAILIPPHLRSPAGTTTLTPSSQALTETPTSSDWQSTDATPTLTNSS

Consider `CC(C)=CCc1cc2c(cc1O)oc(=O)c1c3ccc(O)cc3oc21` [Psoralidin], for which the IC50 in experiment [1] was found to be 2.27 µM; in experiment [2], 4.24 µM.
On the same counts, the results for `O=C(/C=C/c1ccc(O)c(O)c1)O[C@H](Cc1ccc(O)c(O)c1)C(=O)O` [Rosmarinic acid] are 5.14 µM and 2.25 µM.
